The text below walks through data of patent US20240409935A1, “Atg8ylation coordinates stress granule formation and mTOR inactivation in response to lysosomal damage” (priority 2023, published 2024).

Each structure is given as a SMILES string.

The test system of data set [1] is DCP1a puncta (P-bodies) in U2OS cells. Description: HCM quantification of DCP1a puncta (P-body formation) in U2OS cells. As to conditions: 2 mM LLOMe for 30 min. It is filed as cell-based, human.
Data set [2] has as its system U2OS wildtype (WT) and ΔΔG3BP1/2 cells. Description: Propidium iodide (PI) uptake cell death assay (HCM) in U2OS WT and ΔΔG3BP1/2 cells. It is filed as cell-based, human. As to conditions: ΔΔG3BP1/2 cells compared to wildtype U2OS cells, 2 mM LLOMe for 30 min. As for the experimental part: Cells Were treated with 2 mM LLOMe for 30 min, and then stained with propidium iodide (PI) (dead cells) and Hoechst-33342 (total cells). White masks, algorithm-defined cell boundaries (primary objects); red masks, computer-identified PI^+ nuclei (target objects). […] Cells Were treated with 2 mM LLOMe for 30 min. […] Cells Were treated with 2 mM in the presence or absence of 10 μg/ml cycloheximide (CHX) for 30 min, and then stained with PI (dead cells) and Hoechst-33342 (total cells). […] Scale bar, 10 μm. […] Cells Were treated with 2 mM LLOMe with or without CHX for 30 min, and then stained using Live/Dead™ stain kit (ThermoFisher). […] (i) HCM images: white masks, algorithm-defined cell boundaries; green masks, computer-identified eIF4G puncta; red masks, computer-identified PI^+ nuclei (target objects); (ii and iii) corresponding HCM quantification. […]
How does SG formation affect cell fate during lysosomal damage? […] The inventors quantified the number of SGs using the canonical SG marker polyA RNA (Ivanov et al., 2019) via high-content microscopy (HCM) (FIG. S1B) and verified the depletion of SG formation in ΔΔG3BP1/2 cells when exposed to the lysosome-specific damaging agent L-leucyl-L-leucine methyl ester (LLOMe) (Jia et al., 2022; Tan et al., 2022; Thiele et al., 1990) (FIG. 7SB). […]

With `COC(=O)[C@H](CC(C)C)NC(=O)[C@@H](N)CC(C)C` [LLOMe, L-leucyl-L-leucine methyl ester], the “P-body formation (DCP1a marker)” value in data set [1] is “did not induce P-body”. In addition, the “cell death by PI uptake assay” value in data set [2] is reported as “significant cell death”.
